Test systems include NCI-H460 lung; OVCAR-4 ovarian; HCC-2998 colon; K-562 leukemia; 786-0 renal; SK-OV-3 ovarian; RPMI-8226 leukemia; OVCAR-5 ovarian; CAKI-1 renal; EKVX NSCLC.
Test in all cases: NCI anticancer screen, dose series, 48 h

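Each compound was tested at five concentrations against cells in 96-well plates for 48 hours. The concentration for 50% growth inhibition is given as GI50. TGI is the concentration that stops growth completely.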

As to `COc1cccc(/C=C\C(=O)c2ccccc2)c1`, the GI50 in the assay with NCI-H460 lung is 4.02 µM; in the assay on OVCAR-4 ovarian, 10.8 µM; in the assay on HCC-2998 colon it was 8.72 µM; in the assay with K-562 leukemia, 6.27 µM; in the assay with 786-0 renal, 15 µM; with SK-OV-3 ovarian, 15.9 µM. Further, the GI50 in the assay with RPMI-8226 leukemia is 16.2 µM; in the assay on OVCAR-5 ovarian, 9.84 µM; in the assay with CAKI-1 renal, 9.66 µM. The TGI with NCI-H460 lung is 22.3 µM; in the assay with OVCAR-4 ovarian, 27 µM; with HCC-2998 colon it was 25.7 µM; in the assay with K-562 leukemia, over 100 µM; with 786-0 renal, 34.2 µM; with SK-OV-3 ovarian it was 32.2 µM. Also, the TGI was over 100 µM in the assay with RPMI-8226 leukemia, 41.2 µM in the assay with OVCAR-5 ovarian and 24.8 µM in the assay on CAKI-1 renal.
Regarding `CCN(CC)C(=O)Cc1[nH][nH]c(=O)c1C(=O)N(CC)CC`, the TGI in the assay with EKVX NSCLC, with NCI-H460 lung, in the assay on OVCAR-4 ovarian, in the assay on HCC-2998 colon, in the assay with K-562 leukemia and with 786-0 renal was over 100 µM throughout. Further, the TGI with SK-OV-3 ovarian and in the assay with RPMI-8226 leukemia was over 100 µM in each case.
Consider `C=C1C(=O)C23C(O)CC4C(C)(C)CCC(O)C4(C)C2CC(OC(C)=O)C1[C@H]3O` (some centres not stated), for which the TGI in the assay on EKVX NSCLC was 16.8 µM; in the assay on NCI-H460 lung, 6.65 µM; with HCC-2998 colon, 14.8 µM; in the assay with K-562 leukemia, 10.1 µM; in the assay on 786-0 renal, 6.82 µM; in the assay on SK-OV-3 ovarian it was 41.4 µM. Also, the TGI was over 32 µM in the assay on RPMI-8226 leukemia, 21.5 µM in the assay with OVCAR-5 ovarian and 9.39 µM with CAKI-1 renal.
Turning to `N#Cc1sc2nc3c(c(-c4ccccc4)c2c1N)CCCC3`, the TGI in the assay on NCI-H460 lung, with OVCAR-4 ovarian, in the assay on HCC-2998 colon, in the assay on K-562 leukemia, in the assay with 786-0 renal and in the assay with SK-OV-3 ovarian was over 100 µM each time. Also, the TGI in the assay with RPMI-8226 leukemia, with OVCAR-5 ovarian and in the assay with CAKI-1 renal was over 100 µM throughout.
Turning to `COc1ccc([C@@H]2[C@@H](Cl)C(=O)N2c2cc(OC)c(OC)c(OC)c2)cc1C`, the GI50 with EKVX NSCLC was 0.0659 µM; with NCI-H460 lung, 0.313 µM; in the assay on OVCAR-4 ovarian, 0.769 µM; in the assay on HCC-2998 colon it was 0.347 µM; with K-562 leukemia, 0.0456 µM; with 786-0 renal it was 0.0643 µM. Further, the GI50 in the assay with SK-OV-3 ovarian is 0.0841 µM; with RPMI-8226 leukemia, 0.0641 µM; in the assay with OVCAR-5 ovarian it was 0.305 µM. For the same compound, the TGI in the assay with EKVX NSCLC is over 100 µM; in the assay on NCI-H460 lung, 14.4 µM; with OVCAR-4 ovarian, over 100 µM; in the assay on HCC-2998 colon, 58.4 µM; in the assay with K-562 leukemia it was over 100 µM; with 786-0 renal, 21.6 µM. In addition, the TGI in the assay with SK-OV-3 ovarian is over 100 µM; with RPMI-8226 leukemia, 28.3 µM; in the assay on OVCAR-5 ovarian it was over 100 µM.
Consider `O=C(CC1(O)C(=O)Nc2ccc(Cl)cc21)c1ccc(C(=O)NCC2CCC3(CC2)OOC2(CCCCC2)OO3)cc1` (configuration not stated), for which the GI50 is 1.59 µM with EKVX NSCLC; 2.54 µM in the assay with OVCAR-4 ovarian; 4.27 µM with HCC-2998 colon; 1.89 µM in the assay on K-562 leukemia; 0.535 µM in the assay on 786-0 renal; 2.6 µM in the assay with SK-OV-3 ovarian. Moreover, the values for the GI50 in the assay on RPMI-8226 leukemia, in the assay on OVCAR-5 ovarian and with CAKI-1 renal were 1.73 µM, 4.21 µM and 1.62 µM, respectively. For the same compound, the TGI in the assay with EKVX NSCLC was found to be 4.3 µM; in the assay with OVCAR-4 ovarian, 18.3 µM; with HCC-2998 colon, 21.4 µM; in the assay with K-562 leukemia, 4.48 µM; in the assay with 786-0 renal, 1.86 µM; in the assay with SK-OV-3 ovarian, 8.01 µM. The TGI stood at 4.72 µM in the assay with RPMI-8226 leukemia, 30.9 µM with OVCAR-5 ovarian and 3.27 µM with CAKI-1 renal.
For `NN=C1/C(=C\c2ccccc2)CCC/C1=C/c1ccccc1`, the TGI is 89.1 µM in the assay on EKVX NSCLC; over 100 µM in the assay on NCI-H460 lung; over 100 µM in the assay with OVCAR-4 ovarian; over 100 µM in the assay on HCC-2998 colon; 44 µM in the assay on K-562 leukemia; over 100 µM in the assay on 786-0 renal. In addition, the figures for the TGI with SK-OV-3 ovarian, in the assay with RPMI-8226 leukemia and in the assay on OVCAR-5 ovarian were over 100 µM, 38 µM and over 100 µM, respectively.
In the case of `O=C1N(c2ccc(Cl)cc2)C(=O)C2(SC=NN2Cc2ccccc2)N1c1ccc(Cl)cc1` (configuration not stated), the TGI in the assay on EKVX NSCLC, with NCI-H460 lung, with OVCAR-4 ovarian, in the assay with HCC-2998 colon, with K-562 leukemia and in the assay with 786-0 renal was over 100 µM throughout. For the same compound, the TGI in the assay on SK-OV-3 ovarian and in the assay with RPMI-8226 leukemia was over 100 µM in each case.
For the compound `COC(=O)CC(=O)OC1C[C@@H]2CCC3C(C)(C)CCC[C@]3(C)C23CC[C@@]1(C)C3` (some centres not stated), the TGI was 37.5 µM with NCI-H460 lung; 32.5 µM with OVCAR-4 ovarian; 35 µM with HCC-2998 colon; over 100 µM in the assay on K-562 leukemia; 29.9 µM with 786-0 renal; 52.4 µM with SK-OV-3 ovarian. Also, the values for the TGI in the assay on RPMI-8226 leukemia, with OVCAR-5 ovarian and in the assay with CAKI-1 renal were over 100 µM, 29.6 µM and 30.5 µM, respectively.
Turning to `NP1(Oc2ccc(F)cc2)=NP(N)(Oc2ccc(F)cc2)=NP(Oc2ccc(F)cc2)(Oc2ccc(F)cc2)=N1` (configuration not stated), the TGI with EKVX NSCLC came out at 19 µM; in the assay with NCI-H460 lung it was 13.5 µM; in the assay with HCC-2998 colon, 8.4 µM; in the assay with 786-0 renal it was 22.9 µM; in the assay with SK-OV-3 ovarian, 27.2 µM; with RPMI-8226 leukemia, 18.3 µM. Besides, the results for the TGI in the assay on OVCAR-5 ovarian and in the assay with CAKI-1 renal were 23.7 µM and 21.8 µM, respectively.
Regarding `COC(OC)c1cccc2c1C(=O)CCC1(CC2)OCCCCO1`, the TGI in the assay on NCI-H460 lung, with OVCAR-4 ovarian, in the assay with HCC-2998 colon, in the assay with K-562 leukemia, in the assay on 786-0 renal and in the assay on SK-OV-3 ovarian was over 100 µM throughout. Moreover, the TGI in the assay with RPMI-8226 leukemia, with OVCAR-5 ovarian and in the assay on CAKI-1 renal was over 100 µM throughout.
Regarding `COc1cc2c(c3oc4c(O)cccc4c(=O)c13)CC(C(C)(O)CCl)O2` (configuration not stated), the TGI in the assay on EKVX NSCLC is 21.9 µM; in the assay on NCI-H460 lung, 13.2 µM; in the assay with OVCAR-4 ovarian, 8.18 µM; with HCC-2998 colon, 8.35 µM; with 786-0 renal it was 12.8 µM; in the assay with SK-OV-3 ovarian, 17.9 µM. Also, the TGI came to 0.655 µM in the assay with RPMI-8226 leukemia, 34 µM with OVCAR-5 ovarian and 7.68 µM in the assay on CAKI-1 renal.

Values taken from PubChem BioAssay (NCI).
